From patent EP4741392A1, “1H-PYRAZOLO[4,3-C]PYRIDINE COMPOUND, AND COMPOSITION THEREOF AND USE THEREOF” (Shenzhen TargetRx Co., Ltd., priority 2023, dated 2025) come the findings set out here.

Read-outs that look alike come from different tables or passages of the source. A value given as a limit tells only on which side of the number the result lay.

One experiment has as its system NIH/3T3 BTK WT cells. Nature of the experiment: Phosphor-BTK(Y223) assay, adherent cells. The conditions noted are these: read-out: NIH/3T3 BTK-WT pBTK. The experiment is classed as cell-based. In short, it runs like this:
(§1)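 NIH/3T3 cells expressing WT or C481S BTK were pretreated with compound for 0.5 h at 37 °C, then stimulated with 1 mM Na3VO4 (final) for 2 h. Lysates were assayed by HTRF for p-BTK Y223 using the 665/620 nm ratio. IC50 was obtained by nonlinear fit of % inhibition versus 0.5% DMSO control.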

The next experiment relates to NIH/3T3 BTK C481S cells. Nature of the experiment: Phosphor-BTK(Y223) assay, adherent cells. The format is cell-based. The conditions noted are these: read-out: NIH/3T3 BTK-C481S pBTK. The gist of the method:
as §1

The target of another experiment is T1, BTK C481S (Homo sapiens, UniProt Q06187, C481S).
T1 construct: purchased Carna 08-547
T1 sequence (Q06187 whole entry C481S): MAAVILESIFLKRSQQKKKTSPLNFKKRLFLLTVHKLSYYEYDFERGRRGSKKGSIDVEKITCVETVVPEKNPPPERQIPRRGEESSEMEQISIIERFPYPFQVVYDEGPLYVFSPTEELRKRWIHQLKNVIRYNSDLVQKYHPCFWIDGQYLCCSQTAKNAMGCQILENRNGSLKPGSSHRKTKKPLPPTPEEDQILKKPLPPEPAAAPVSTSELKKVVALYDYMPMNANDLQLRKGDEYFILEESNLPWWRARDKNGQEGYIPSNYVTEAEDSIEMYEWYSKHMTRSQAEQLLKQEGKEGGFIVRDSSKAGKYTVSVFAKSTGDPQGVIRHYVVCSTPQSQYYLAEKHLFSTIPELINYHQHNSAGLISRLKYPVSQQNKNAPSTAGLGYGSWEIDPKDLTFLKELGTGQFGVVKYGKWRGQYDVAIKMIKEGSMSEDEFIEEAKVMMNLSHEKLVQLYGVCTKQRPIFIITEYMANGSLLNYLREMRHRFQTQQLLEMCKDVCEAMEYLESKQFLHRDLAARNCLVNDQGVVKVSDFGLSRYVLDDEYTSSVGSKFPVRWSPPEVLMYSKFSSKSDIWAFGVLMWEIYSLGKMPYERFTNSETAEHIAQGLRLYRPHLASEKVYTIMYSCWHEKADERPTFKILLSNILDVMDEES
Nature of the experiment: Kinase activity inhibition assay (HTRF TK Kit). The format is biochemical. The gist of the method: (§2)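 HTRF TK assay set up on ice: compound, then biotinylated substrate plus ATP, then kinase, reacted at room temperature; streptavidin-XL665 and TK antibody-cryptate added for 1 h. The 665/620 nm ratio gave % inhibition versus no-kinase blank and kinase-plus-1% DMSO controls; IC50 from four-parameter nonlinear fit.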
On the technique in general: TR-FRET usually uses a lanthanide donor and a delayed reading to cut background.

A further experiment deals with T2, BTK kinase (Homo sapiens, UniProt Q06187).
T2 construct: purchased Invitrogen PV3587
T2 sequence (Q06187 whole entry): as the sequence (Q06187 whole entry C481S) above, with S481C counted along it
Nature of the experiment: Kinase activity inhibition assay (HTRF TK Kit). The format is biochemical. The gist of the method:
as §2

Another experiment deals with T3, BTK T474I (Homo sapiens, UniProt Q06187, T474I).
T3 construct: purchased SignalChem B10-12HH
T3 sequence (Q06187 whole entry T474I): as the sequence (Q06187 whole entry C481S) above, with T474I, S481C counted along it
Nature of the experiment: Kinase activity inhibition assay (HTRF TK Kit). The experiment is classed as biochemical. The gist of the method: as §2

[1] abbreviates: Mus musculus, NIH3T3, phosphorylated BTK Y223, NIH/3T3 BTK WT cells.
The mark [2] stands for this setting: Mus musculus, NIH3T3, phosphorylated BTK Y223, NIH/3T3 BTK C481S cells.

With `COc1ccc(F)cc1C(=O)NCc1ccc(-c2ncc(-c3ccc4c(n3)nc3n4C(C)COC3)c3[nH]nc(N)c23)cc1` (stereo not drawn) [Example 103, N-(4-(3-amino-7-(6-methyl-6,7-dihydro-9H-pyrido[2',3':4,5]imidazo[2,1-c][1,4]oxazin-2-yl)-1H-pyrazolo[4,3-c]pyridin-4-yl)benzyl)-5-fluoro-2-methoxybenzamide], the IC50 in the experiment with NIH/3T3 BTK WT cells (setting [1]) was 5 to 10 nM; in the experiment on NIH/3T3 BTK C481S cells (setting [2]), 10 to 50 nM; at BTK C481S, 5 to 50 nM; at BTK kinase it was 5 to 50 nM; on BTK T474I, 50 to 500 nM.

`COc1ccc(F)cc1C(=O)NCc1ccc(-c2ncc(-c3cccnc3)c3[nH]nc(N)c23)cc1` [Example 105, N-(4-(3-amino-7-(pyridin-3-yl)-1H-pyrazolo[4,3-c]pyridin-4-yl)benzyl)-5-fluoro-2-methoxybenzamide]: the IC50 with NIH/3T3 BTK WT cells (setting [1]) is greater than 50 nM; in the experiment on NIH/3T3 BTK C481S cells (setting [2]) it was greater than 50 nM; at BTK C481S it was 50 to 500 nM; at BTK kinase it was 5 to 50 nM; on BTK T474I, greater than 500 nM.

For the molecule `COc1ccc(F)cc1C(=O)NCc1ccc(-c2ncc(-c3ccncc3)c3[nH]nc(N)c23)cc1` [Example 106, N-(4-(3-amino-7-(pyridin-4-yl)-1H-pyrazolo[4,3-c]pyridin-4-yl)benzyl)-5-fluoro-2-methoxybenzamide], the IC50 in the experiment on NIH/3T3 BTK WT cells (setting [1]) was greater than 50 nM; with NIH/3T3 BTK C481S cells (setting [2]) it was greater than 50 nM; on BTK C481S, 50 to 500 nM; at BTK kinase, 50 to 500 nM; at BTK T474I, greater than 500 nM.

On to `COc1ccc(F)cc1C(=O)NCc1ccc(-c2nc(C3CCOCC3)cc3[nH]nc(N)c23)cc1` [Example 115, N-(4-(3-amino-6-(tetrahydro-2H-pyran-4-yl)-1H-pyrazolo[4,3-c]pyridin-4-yl)benzyl)-5-fluoro-2-methoxybenzamide], for which the IC50 was no more than 5 nM with NIH/3T3 BTK WT cells (setting [1]); 5 to 10 nM in the experiment with NIH/3T3 BTK C481S cells (setting [2]); 1 to 5 nM on BTK C481S; 5 to 50 nM at BTK kinase; 50 to 500 nM at BTK T474I.

Regarding `COc1ccc(F)cc1C(=O)NCc1ccc(-c2nc([C@H]3CC[C@H](CO)CC3)cc3[nH]nc(N)c23)cc1` [Example 117, N-(4-(3-amino-6-((1r,4r)-4-(hydroxymethyl)cyclohexyl)-1H-pyrazolo[4,3-c]pyridin-4-yl)benzyl)-5-fluoro-2-methoxybenzamide], the IC50 was 10 to 50 nM in the experiment with NIH/3T3 BTK WT cells (setting [1]); 10 to 50 nM with NIH/3T3 BTK C481S cells (setting [2]); 1 to 5 nM at BTK C481S; 1 to 5 nM at BTK kinase; 50 to 500 nM at BTK T474I.

“N-(4-(3-amino-7-(1-(difluoromethyl)-1H-pyrazol-3-yl)-1H-pyrazolo[4,3-c]pyridin-4-yl)benzyl)-5-fluoro-2-methoxybenzamide [Example 29]”: the IC50 in the experiment with NIH/3T3 BTK WT cells (phosphorylated BTK Y223, NIH/3T3 BTK WT cells) is no more than 5 nM; in the experiment on NIH/3T3 BTK C481S cells (phosphorylated BTK Y223, NIH/3T3 BTK C481S cells), 5 to 10 nM; on BTK C481S it was no more than 1 nM; on BTK kinase it was no more than 1 nM; on BTK T474I, 5 to 50 nM.
